Activity calls are given as the source filed them.
Assays:
[1] = target: T1, Short transient receptor potential channel 4 (Mus musculus, UniProt Q9QUQ5); assay: calcium entry via TRPC4 opening agents – cell-based, HEK293 TRPC4/mu-opioid, Fluo-4 calcium, dose response (AID 434937); assay type: functional
T1 sequence (Q9QUQ5 whole entry): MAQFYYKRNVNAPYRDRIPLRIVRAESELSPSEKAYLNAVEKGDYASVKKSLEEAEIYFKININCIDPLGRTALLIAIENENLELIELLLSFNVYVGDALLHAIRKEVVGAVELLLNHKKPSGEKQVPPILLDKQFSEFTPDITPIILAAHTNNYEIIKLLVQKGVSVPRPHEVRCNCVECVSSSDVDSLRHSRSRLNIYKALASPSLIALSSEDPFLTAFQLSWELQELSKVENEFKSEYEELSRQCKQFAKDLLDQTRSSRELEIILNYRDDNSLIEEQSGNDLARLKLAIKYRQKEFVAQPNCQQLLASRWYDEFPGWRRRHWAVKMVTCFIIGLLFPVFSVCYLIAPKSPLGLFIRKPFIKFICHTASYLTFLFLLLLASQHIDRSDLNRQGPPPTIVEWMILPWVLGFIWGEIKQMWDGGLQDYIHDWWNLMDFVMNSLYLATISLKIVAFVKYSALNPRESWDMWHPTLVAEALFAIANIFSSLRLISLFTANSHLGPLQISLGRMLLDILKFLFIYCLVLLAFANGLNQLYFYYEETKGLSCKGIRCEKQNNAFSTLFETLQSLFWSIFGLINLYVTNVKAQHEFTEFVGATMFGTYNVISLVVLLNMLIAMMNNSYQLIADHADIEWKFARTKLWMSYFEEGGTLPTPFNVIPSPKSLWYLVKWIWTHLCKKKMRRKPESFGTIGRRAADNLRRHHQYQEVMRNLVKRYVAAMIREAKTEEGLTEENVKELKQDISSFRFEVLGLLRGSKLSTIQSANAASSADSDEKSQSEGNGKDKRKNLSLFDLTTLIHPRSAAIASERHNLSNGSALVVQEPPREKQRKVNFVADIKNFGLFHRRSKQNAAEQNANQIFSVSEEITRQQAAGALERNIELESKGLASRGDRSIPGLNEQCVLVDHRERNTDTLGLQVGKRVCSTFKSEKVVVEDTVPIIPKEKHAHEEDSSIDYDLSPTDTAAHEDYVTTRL

[2] = HEK-293T viability loss after treatment – luminescence, T-cell screen hits, cytotoxicity control for TCR NF-kB inhibitor project, dose response (AID 489026); assay type: functional, cell-based;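 further: cells exposed to compound about 14 hours before the viability readout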
Beta-galactosidase = Beta-galactosidase (Escherichia coli, UniProt Q8VNN2); assay: Dose response counterscreen for EBI2 assay utilizing the enzyme, b-galactosidase.; assay type: functional
Beta-galactosidase, sequence (Q8VNN2 whole entry): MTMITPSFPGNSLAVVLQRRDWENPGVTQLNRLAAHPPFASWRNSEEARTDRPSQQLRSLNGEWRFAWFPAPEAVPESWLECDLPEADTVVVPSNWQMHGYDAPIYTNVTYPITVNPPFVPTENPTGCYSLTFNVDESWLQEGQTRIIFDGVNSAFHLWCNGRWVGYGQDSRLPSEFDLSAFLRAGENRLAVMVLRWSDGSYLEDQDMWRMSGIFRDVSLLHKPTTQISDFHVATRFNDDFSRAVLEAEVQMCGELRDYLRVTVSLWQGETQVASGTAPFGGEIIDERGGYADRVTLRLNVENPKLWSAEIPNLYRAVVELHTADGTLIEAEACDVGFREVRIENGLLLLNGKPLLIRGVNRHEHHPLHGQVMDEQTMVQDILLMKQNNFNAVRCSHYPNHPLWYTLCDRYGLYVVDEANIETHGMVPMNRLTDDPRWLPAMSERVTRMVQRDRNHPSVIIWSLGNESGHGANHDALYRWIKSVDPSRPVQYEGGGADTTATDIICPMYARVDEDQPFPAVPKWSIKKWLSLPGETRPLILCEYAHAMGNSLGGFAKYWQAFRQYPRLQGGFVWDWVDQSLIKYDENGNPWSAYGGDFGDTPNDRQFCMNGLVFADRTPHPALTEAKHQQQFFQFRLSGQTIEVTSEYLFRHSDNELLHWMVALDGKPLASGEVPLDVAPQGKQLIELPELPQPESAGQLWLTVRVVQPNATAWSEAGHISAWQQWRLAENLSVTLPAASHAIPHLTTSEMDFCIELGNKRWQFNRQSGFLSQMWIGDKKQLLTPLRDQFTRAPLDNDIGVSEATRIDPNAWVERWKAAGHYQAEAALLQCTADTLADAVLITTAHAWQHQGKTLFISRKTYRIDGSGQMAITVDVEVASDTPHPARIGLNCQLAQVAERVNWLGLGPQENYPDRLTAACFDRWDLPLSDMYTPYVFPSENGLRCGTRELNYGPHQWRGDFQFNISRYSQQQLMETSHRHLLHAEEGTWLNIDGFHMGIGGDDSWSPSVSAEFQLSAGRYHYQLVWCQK

[3] = NIH-3T3 fibroblast cytotoxicity, dose response, cytotoxicity control, cell-based, fluorescence, Alamar Blue, secondary assay (AID 2327); assay type: functional;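 further: NIH-3T3 mouse fibroblasts cultured with fluconazole at 8 µg/mL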
[4] = fluconazole-exposed Candida albicans growth modulators – fluorescence, retest, confirmation (AID 2467); assay type: functional, cell-based
[5] = Trypanosoma cruzi growth suppression in host cells – NIH3T3 host cells, beta-gal luminescence, confirmation (AID 2044); assay type: functional, cell-based;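 further: intracellular parasites grown in NIH/3T3 mouse fibroblasts as host cells; luminescent beta-galactosidase reporter signal from transgenic T. cruzi replicating inside host cells; inhibitors lower the luminescence signal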
[6] = NIH3T3 cell viability loss – ATP luminescence, mouse fibroblasts, counter-screen, dose response (AID 2010); assay type: functional, cell-based;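 further: cells exposed to compound for about 90 hours before reading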
[7] = target: DNA dC->dU-editing enzyme APOBEC-3A (Homo sapiens, UniProt P31941); assay: Dose Response confirmation of small molecule APOBEC3A DNA Deaminase Inhibitors via a fluorescence-based single-stranded DNA deaminase assay. [Related pubchem assays (depositor defined):AID493011, AID493024]; assay type: functional
DNA dC->dU-editing enzyme APOBEC-3A, sequence (P31941 whole entry): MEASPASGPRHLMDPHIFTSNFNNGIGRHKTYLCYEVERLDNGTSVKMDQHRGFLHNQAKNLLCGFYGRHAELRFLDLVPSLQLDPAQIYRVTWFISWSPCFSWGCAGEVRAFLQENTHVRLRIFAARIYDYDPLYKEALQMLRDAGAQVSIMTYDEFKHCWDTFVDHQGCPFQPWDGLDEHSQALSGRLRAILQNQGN

[8] = target: DNA dC->dU-editing enzyme APOBEC-3G (Homo sapiens, UniProt Q9HC16); assay type: functional;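 further: Dose-response counterscreen measuring inhibition of APOBEC3G DNA deaminase activity, run while confirming APOBEC3A inhibitors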
DNA dC->dU-editing enzyme APOBEC-3G, sequence (Q9HC16 whole entry, the tested form may be a part): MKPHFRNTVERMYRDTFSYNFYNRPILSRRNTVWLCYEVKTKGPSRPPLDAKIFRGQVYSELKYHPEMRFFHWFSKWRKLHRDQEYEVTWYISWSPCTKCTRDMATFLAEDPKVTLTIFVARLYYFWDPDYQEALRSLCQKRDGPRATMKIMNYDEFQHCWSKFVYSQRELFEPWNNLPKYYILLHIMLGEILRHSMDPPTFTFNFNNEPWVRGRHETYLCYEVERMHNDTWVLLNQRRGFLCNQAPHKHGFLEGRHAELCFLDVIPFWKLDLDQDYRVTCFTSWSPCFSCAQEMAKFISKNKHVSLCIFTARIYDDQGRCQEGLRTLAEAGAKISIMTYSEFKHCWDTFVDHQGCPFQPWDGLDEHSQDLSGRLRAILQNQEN

[9] = target: T2, Carboxy-terminal domain RNA polymerase II polypeptide A small phosphatase 1 (Homo sapiens, UniProt Q9GZU7); assay: CTDSP1 inhibitors, concentration-response, biochemical, absorbance readout, ultra-high-throughput screen actives (AID 540297); assay type: functional
T2 sequence (Q9GZU7 whole entry): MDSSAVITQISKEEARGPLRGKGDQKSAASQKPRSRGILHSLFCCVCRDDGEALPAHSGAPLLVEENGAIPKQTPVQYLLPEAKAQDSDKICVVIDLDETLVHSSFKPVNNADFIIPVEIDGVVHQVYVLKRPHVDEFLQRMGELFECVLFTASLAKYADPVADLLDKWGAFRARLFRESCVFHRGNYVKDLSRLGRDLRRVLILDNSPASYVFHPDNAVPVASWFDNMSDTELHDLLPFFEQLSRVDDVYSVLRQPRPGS

[10] = viability of PTEN-deleted HCT116 cells – cell-based, HCT116 PTEN knockout, dose response (AID 1047); assay type: functional;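 further: HCT116 colon tumor cells with PTEN knocked out; cells exposed to compound for 60 hours before readout; potency for loss of cell viability measured by luminescence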
[11] = viability of HCT116 lacking mutant beta-catenin – cell-based, human colon tumor, dose response (AID 1045); assay type: functional;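 further: HCT116 colon tumor cells with beta catenin knocked out; cells exposed to compound for 60 hours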
[12] = target: DNA damage-inducible transcript 3 protein (Mus musculus, UniProt P35639); assay type: functional, Cricetulus griseus
DNA damage-inducible transcript 3 protein, sequence (P35639 whole entry): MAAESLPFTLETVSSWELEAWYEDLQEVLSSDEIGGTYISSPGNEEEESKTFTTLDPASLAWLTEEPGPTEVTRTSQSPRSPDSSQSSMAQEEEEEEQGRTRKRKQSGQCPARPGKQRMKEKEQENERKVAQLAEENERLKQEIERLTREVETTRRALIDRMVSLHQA

Coagulation factor XII = target: T3, Coagulation factor XII (Homo sapiens, UniProt P00748); assay type: functional;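 further: activated factor XIIa alpha cleaving a fluorogenic AMC peptide substrate; inhibitor potency from loss of enzyme activity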
T3 sequence (P00748 whole entry): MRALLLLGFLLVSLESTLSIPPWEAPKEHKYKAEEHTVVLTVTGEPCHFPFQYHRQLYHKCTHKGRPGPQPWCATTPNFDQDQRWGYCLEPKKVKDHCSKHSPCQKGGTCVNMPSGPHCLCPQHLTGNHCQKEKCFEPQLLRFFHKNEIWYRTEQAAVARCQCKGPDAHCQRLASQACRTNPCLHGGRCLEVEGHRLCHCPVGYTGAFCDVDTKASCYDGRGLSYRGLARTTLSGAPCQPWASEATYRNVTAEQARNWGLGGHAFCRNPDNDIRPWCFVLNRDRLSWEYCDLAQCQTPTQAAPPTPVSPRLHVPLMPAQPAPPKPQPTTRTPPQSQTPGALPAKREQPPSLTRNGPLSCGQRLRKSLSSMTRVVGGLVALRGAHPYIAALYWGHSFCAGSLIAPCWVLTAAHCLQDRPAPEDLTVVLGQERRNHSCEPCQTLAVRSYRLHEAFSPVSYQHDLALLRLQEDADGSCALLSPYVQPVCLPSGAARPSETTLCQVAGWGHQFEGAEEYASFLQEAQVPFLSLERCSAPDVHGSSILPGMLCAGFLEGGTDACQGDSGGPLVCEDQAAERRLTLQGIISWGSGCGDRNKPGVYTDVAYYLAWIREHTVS

[13] = target: Eukaryotic translation initiation factor 4H (Homo sapiens, UniProt Q15056); assay: eIF4H binding inhibition – biochemical, uHTS, fluorescence polarization, translation initiation inhibitor project, primary screen (AID 2012)
[14] = target: Polyadenylate-binding protein 1 (Homo sapiens, UniProt P11940); assay: blockers of PABP interaction with poly(A) – biochemical, fluorescence polarization, […] (AID 2014)
Polyadenylate-binding protein 1, sequence (P11940 whole entry): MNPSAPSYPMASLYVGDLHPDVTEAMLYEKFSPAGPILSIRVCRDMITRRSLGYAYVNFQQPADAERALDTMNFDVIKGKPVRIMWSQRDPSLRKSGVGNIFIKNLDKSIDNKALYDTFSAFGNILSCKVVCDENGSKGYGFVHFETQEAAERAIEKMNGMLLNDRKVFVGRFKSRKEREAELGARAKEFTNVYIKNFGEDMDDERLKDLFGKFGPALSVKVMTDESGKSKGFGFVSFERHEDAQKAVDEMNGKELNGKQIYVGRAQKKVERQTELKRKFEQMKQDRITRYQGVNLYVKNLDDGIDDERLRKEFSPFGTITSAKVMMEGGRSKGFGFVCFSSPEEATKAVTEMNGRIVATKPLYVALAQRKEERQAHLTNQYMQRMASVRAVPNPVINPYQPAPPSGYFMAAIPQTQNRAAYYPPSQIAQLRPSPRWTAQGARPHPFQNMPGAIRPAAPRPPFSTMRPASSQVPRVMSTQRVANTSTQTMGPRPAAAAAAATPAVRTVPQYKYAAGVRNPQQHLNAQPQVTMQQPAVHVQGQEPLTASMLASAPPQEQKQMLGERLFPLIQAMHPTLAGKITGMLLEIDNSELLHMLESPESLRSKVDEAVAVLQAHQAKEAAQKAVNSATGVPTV

BJ [15] = assay: BJ-TERT fibroblast viability loss – cell-based, RAS-independent, luminescence, dose response (AID 1933); assay type: functional; conditions: Homo sapiens
BJ [16] = assay: cells; assay type: functional, cell-based; conditions: Homo sapiens
[17] = target: Luciferin 4-monooxygenase (Photinus pyralis, UniProt P08659); assay: inhibition of purified Photinus pyralis luciferase – biochemical, luminescence, dose response (AID 1891)
Luciferin 4-monooxygenase, sequence (P08659 whole entry): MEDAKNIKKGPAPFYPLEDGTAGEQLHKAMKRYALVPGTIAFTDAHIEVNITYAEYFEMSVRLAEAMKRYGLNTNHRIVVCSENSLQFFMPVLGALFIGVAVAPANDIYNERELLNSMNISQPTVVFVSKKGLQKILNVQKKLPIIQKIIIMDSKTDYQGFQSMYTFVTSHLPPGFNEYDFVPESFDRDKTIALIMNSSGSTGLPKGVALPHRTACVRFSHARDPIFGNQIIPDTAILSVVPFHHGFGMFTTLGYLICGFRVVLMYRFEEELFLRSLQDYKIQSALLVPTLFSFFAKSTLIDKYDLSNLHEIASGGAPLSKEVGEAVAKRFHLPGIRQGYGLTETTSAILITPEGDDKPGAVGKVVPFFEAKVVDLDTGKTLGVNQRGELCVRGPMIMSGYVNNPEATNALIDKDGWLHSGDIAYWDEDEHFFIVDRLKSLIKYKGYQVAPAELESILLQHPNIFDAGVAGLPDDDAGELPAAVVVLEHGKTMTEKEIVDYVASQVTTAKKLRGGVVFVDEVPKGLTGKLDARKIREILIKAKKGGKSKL

[18] = Luminescence Cell-Based Dose Confirmation HTS to Identify Inhibitors of Platelet Dense Granule Release. [Related pubchem assays: 1663 (Primary HTS), 1678 (Summary of Project)]; assay type: functional
BJ [19] = assay: BJ-TERT-LT-ST fibroblast viability loss – cell-based, RAS-independent, luminescence, dose response (AID 1935); assay type: functional; conditions: Homo sapiens;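 further: BJ fibroblasts immortalized with TERT plus LT and ST oncogenes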
[20] = DRD fibroblast viability loss – cell-based, non-viral oncogenic, luminescence, dose response (AID 1934); assay type: functional; conditions: Homo sapiens
[21] = blockers of HIV-1 envelope-mediated cell-cell fusion – cherry-pick, dose response (AID 652057); assay type: functional, cell-based
[22] = viability loss in CEM21 cells – cell-based, CellTiter-Glo luminescence, cherry-picked, cytotoxicity control for viral fusion inhibitor project, dose response (AID 652042); assay type: functional;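 further: potency for signal decrease meaning cytotoxicity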
[23] = blockers of HIV-1 ZM109 envelope-driven cell-cell fusion – HeLa effector, CEM target cells, luciferase, cherry-pick, dose response (AID 652058); assay type: functional, cell-based;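 further: luciferase signal from HIV-1 Env mediated cell-cell fusion of effector and target cells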
Paired box protein Pax-8 = Paired box protein Pax-8 (Homo sapiens, UniProt Q06710); assay: PAX8 transcriptional activity inhibition in RMG-I – RMG-I cells, luciferase, cherry-pick, dose response (AID 687027); assay type: functional, cell-based;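 further: luciferase reporter driven by Pax8 target thyroperoxidase promoter measured by SteadyGlo luminescence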
Paired box protein Pax-8, sequence (Q06710 whole entry, the tested form may be a part): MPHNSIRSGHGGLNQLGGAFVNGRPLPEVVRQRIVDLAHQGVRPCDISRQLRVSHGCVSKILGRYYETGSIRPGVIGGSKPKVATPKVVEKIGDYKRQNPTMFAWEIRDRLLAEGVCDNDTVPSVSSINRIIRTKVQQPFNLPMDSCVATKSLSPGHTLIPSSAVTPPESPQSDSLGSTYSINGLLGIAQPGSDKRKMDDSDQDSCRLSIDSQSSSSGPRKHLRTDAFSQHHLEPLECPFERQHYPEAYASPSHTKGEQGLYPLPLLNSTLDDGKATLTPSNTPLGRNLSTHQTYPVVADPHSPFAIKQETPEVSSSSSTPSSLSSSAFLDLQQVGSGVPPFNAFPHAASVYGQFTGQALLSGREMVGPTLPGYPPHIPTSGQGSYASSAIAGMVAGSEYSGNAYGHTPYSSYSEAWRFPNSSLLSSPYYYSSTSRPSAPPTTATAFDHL

[24] = off-target signal loss in HeLa-CEM21 co-culture – HeLa F-luc CTL cells, cherry-picked, counter-screen for HIV-1 Env fusion inhibitor project, dose response (AID 652040); assay type: functional, cell-based;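 further: potency for signal decrease marking cytotoxic or nonspecific inhibition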
[25] = HIV-1 AD8 envelope cell-cell fusion blockers – cherry-pick, dose response (AID 652062); assay type: functional, cell-based;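 further: luciferase signal from cell-cell fusion driven by HIV-1 clade B AD8 Env; potency is for inhibitors of fusion seen as a drop in luminescence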
[26] = general cell-killing toxicity readout – plate reader, dry powder samples, cytotoxicity control for PAX8 inhibitor project, dose response (AID 743021); assay type: functional, cell-based

Question: With CN(CCc1ccccn1)C(=O)CC1C(=O)NCCN1Cc1ccc(-c2ccccc2)cc1 (configuration not stated) as the compound, how does the EC50 [1] read?
Answer: The EC50 was 3.76 µM (active).

Question: Which IC50 [2] does the source give for CCOC(=O)c1ccccc1NC(=O)Cn1c(-c2nonc2N)nc2ccccc21 here?
Answer: Its IC50 is > 80 µM (inactive).

Question: Which EC50 [1] does the source give for CCCn1ncc(CN2CCC(n3nccc3NC(=O)CCc3ccccc3)CC2)c1C here?
Answer: The EC50 was 0.024 µM (active).

Question: Which IC50 [2] does the source give for COc1ccc(Nc2nc(-c3sc(C)nc3C)cs2)cc1 here?
Answer: The IC50 was 49.6 µM (inactive).

Question: What about the IC50 (Beta-galactosidase) of the same compound?
Answer: The IC50 was > 80 µM (inactive).

Question: Which EC50 [3] does the source give for CC1(C)CC(N2CCCC2)=CC(=[N+]2CCCC2)C1 here?
Answer: Its EC50 is > 160 µM (inactive).

Question: What about the EC50 [4] of the same compound?
Answer: The EC50 was 2.7 µM (active).

Question: What about the EC50 [5] of the same compound?
Answer: The EC50 was 0.693 µM (active).

Question: And the EC50 [6]?
Answer: The EC50 was > 60 µM (not active).

Question: And the IC50 [7]?
Answer: Its IC50 is 1.53 µM (active).

Question: What about the IC50 [8] of the same compound?
Answer: Its IC50 is 1.47 µM (active).

Question: And the IC50 [9]?
Answer: The IC50 was 3.62 µM (active).

Question: Which results are given for COc1ccc(OC)c2sc(NC(=O)c3ccc(Cl)s3)nc12?
Answer: EC50 [10]: 11.8 µM (active); EC50 [11]: 9.28 µM (active); Absolute IC50 (CHOP) [12]: 10 µM

Question: With CCn1c(SCC(=O)Nc2cccnc2Cl)nnc1-c1ccccc1 as the compound, how does the IC50 (Coagulation factor XII) read?
Answer: The IC50 was > 50 µM (inactive).

Question: What does the source list for CC(C)[N+](C)(C)CC#CC(O)(c1ccccc1)c1ccccc1?
Answer: IC50 [13]: > 100 µM (inactive); IC50 [14]: 9.63 µM (active); IC50 [7]: 2.55 µM (active); IC50 [8]: 2.49 µM (active)

Question: For O=C(c1ccc(Cl)cc1)c1c[nH]c(C(=O)NNc2cccc(Cl)n2)c1, which “Absolute IC50 (CHOP)” value [12] is on record?
Answer: The value was 10 µM.

Question: For CCOC(=O)CNC(=O)Cc1ccc(OC)cc1, which IC50 (Coagulation factor XII) is on record?
Answer: Its IC50 is > 50 µM (inactive).

Question: Which EC50 [1] does the source give for CN(C)CCNC(=O)c1scc2c1CCCC2 here?
Answer: Its EC50 is 3.35 µM (active).

Question: Which EC50 (BJ [15]) does the source give for O=C(O)c1ccc(N/N=C/c2ccc3c(c2)OCO3)cc1 here?
Answer: Its EC50 is 13.1 µM (active).

Question: And the EC50 (BJ [16])?
Answer: Its EC50 is 8.37 µM (active).

Question: What about the EC50 [17] of the same compound?
Answer: Its EC50 is < 0.088 µM (active).

Question: What about the EC50 [18] of the same compound?
Answer: The EC50 was < 0.088 µM (active).

Question: What about the EC50 (BJ [19]) of the same compound?
Answer: Its EC50 is 24.2 µM (active).

Question: And the EC50 [20]?
Answer: Its EC50 is 8.19 µM (active).

Question: What about the IC50 [2] of the same compound?
Answer: Its IC50 is > 80 µM (inactive).

Question: What about the AC50 [21] of the same compound?
Answer: The AC50 was 2.44 µM (active).

Question: What about the AC50 [22] of the same compound?
Answer: The AC50 was 36.6 µM (active).

Question: And the AC50 [23]?
Answer: The AC50 was 9.48 µM (active).

Question: What about the AC50 (Paired box protein Pax-8) of the same compound?
Answer: The AC50 was 3.04 µM (active).

Question: What about the AC50 [24] of the same compound?
Answer: Its AC50 is 4.15 µM (active).

Question: What about the AC50 [25] of the same compound?
Answer: Its AC50 is 5.24 µM (active).

Question: And the AC50 [26]?
Answer: The AC50 was 27.7 µM (active).

— ChEMBL document CHEMBL1201862, “PubChem BioAssay data set” (2004)
